# Literature values as cited in PMC9146500, “New Quinoline–Urea–Benzothiazole Hybrids as Promising Antitubercular Agents: Synthesis, In Vitro Antitubercular Activity, Cytotoxicity Studies, and In Silico ADME Profiling” (Pharmaceuticals, 2022).
# Conditions: cited from earlier work
smiles,measurement,value
CC(C)=CCC/C(C)=C/CNCCNC1C2CC3CC(C2)CC1C3 (stereo not shown) [SQ-109],clog P,6.82
